Results as given in ChEMBL document CHEMBL3885861, “Open TG-GATES”.

Organism: Rattus norvegicus
Test: Open TG-GATES - Regimen: Single
Assay type: toxicity, organism-based, Sprague-Dawley
Parameters: regimen Single, gender Male, age 6 weeks
Conditions: in vivo, ip, route intraperitoneal injection; for APTT / Bas / Eos / Fbg / Hb / Ht / Lym / MCH / MCHC / MCV / Mono / Neu / PT / Plat / RBC / Ret / WBC: tissue Blood; for KIDNEY_L / KIDNEY_R / KIDNEY_TOTAL: tissue Kidney; for LIVER: tissue Liver; for A/G / ALP / ALT / AST / BUN / CRE / Ca / Cl / DBIL / GLC / IP / K / LDH / Na / PL / RALB / TBIL / TC / TG / TP / gamma-GTP: tissue Plasma
[1] = 0 mg/kg, 3 h, dose 0 ug/Kg, dose level Control
[2] = 0 mg/kg, 6 h, dose 0 ug/Kg, dose level Control
[3] = 0 mg/kg, 9 h, dose 0 ug/Kg, dose level Control
[4] = 0 mg/kg, 24 h, dose 0 ug/Kg, dose level Control
[5] = 0.001 mg/kg, 3 h, dose 1 ug/Kg, dose level Low
[6] = 0.001 mg/kg, 6 h, dose 1 ug/Kg, dose level Low
[7] = 0.001 mg/kg, 9 h, dose 1 ug/Kg, dose level Low
[8] = 0.001 mg/kg, 24 h, dose 1 ug/Kg, dose level Low

## H-KGDRLS-OH [TNF-ALPHA]
[1]
  TERMINAL_BW: 200.6 g
  APTT: 20 s
  Bas: 0.4%
  Eos: 0.8%
  Fbg: 268.8 mg/dL
  Hb: 13 g/dL
  Ht: 40.3%
  Lym: 73.8%
  MCH: 21.6 pg
  MCHC: 32.3%
  MCV: 66.8 fL
  Mono: 3.8%
  Neu: 19.8%
  PT: 15.4 s
  Plat: 101.9 x10_4/uL
  RBC: 603.2 x10_4/ul
  Ret: 9.3%
  WBC: 95.8 x10_2/uL
  KIDNEY_L: 0.9 g
  KIDNEY_R: 0.9 g
  KIDNEY_TOTAL: 1.7 g
  LIVER: 9.3 g
  A/G: 0.9
  ALP: 1391 IU/L
  ALT: 43 IU/L
  AST: 74.8 IU/L
  BUN: 10.8 mg/dL
  CRE: 0.2 mg/dL
  Ca: 10.8 mg/dL
  Cl: 105.2 meq/L
  DBIL: 0.012 mg/dL
  GLC: 173.4 mg/dL
  IP: 9.6 mg/dL
  K: 4.1 meq/L
  LDH: 73.2 IU/L
  Na: 142.2 meq/L
  PL: 149.2 mg/dL
  RALB: 2.4 g/dL
  TBIL: 0.06 mg/dL
  TC: 79.8 mg/dL
  TG: 61.2 mg/dL
  TP: 5.3 g/dL
  gamma-GTP: 1.2 IU/L
[2]
  TERMINAL_BW: 199.4 g
  APTT: 16.7 s
  Bas: 0%
  Eos: 0.2%
  Fbg: 285 mg/dL
  Hb: 13.1 g/dL
  Ht: 40%
  Lym: 68.8%
  MCH: 21.3 pg
  MCHC: 32.6%
  MCV: 65.1 fL
  Mono: 2.8%
  Neu: 26.8%
  PT: 15.6 s
  Plat: 109.7 x10_4/uL
  RBC: 615.4 x10_4/ul
  Ret: 8.8%
  WBC: 77.4 x10_2/uL
  KIDNEY_L: 0.9 g
  KIDNEY_R: 0.9 g
  KIDNEY_TOTAL: 1.9 g
  LIVER: 8.5 g
  A/G: 0.9
  ALP: 1347.2 IU/L
  ALT: 40 IU/L
  AST: 73.6 IU/L
  BUN: 9.4 mg/dL
  CRE: 0.2 mg/dL
  Ca: 10.8 mg/dL
  Cl: 105 meq/L
  DBIL: 0.01 mg/dL
  GLC: 179.6 mg/dL
  IP: 10.1 mg/dL
  K: 4 meq/L
  LDH: 58.8 IU/L
  Na: 142.8 meq/L
  PL: 146.4 mg/dL
  RALB: 2.5 g/dL
  TBIL: 0.058 mg/dL
  TC: 78.8 mg/dL
  TG: 44 mg/dL
  TP: 5.3 g/dL
  gamma-GTP: 1.4 IU/L
[3]
  TERMINAL_BW: 195.6 g
  APTT: 18 s
  Bas: 0.4%
  Eos: 0.4%
  Fbg: 305 mg/dL
  Hb: 13.1 g/dL
  Ht: 40.5%
  Lym: 68.4%
  MCH: 20.9 pg
  MCHC: 32.5%
  MCV: 64.2 fL
  Mono: 1.6%
  Neu: 28.6%
  PT: 15.4 s
  Plat: 118.6 x10_4/uL
  RBC: 631 x10_4/ul
  Ret: 8.6%
  WBC: 77.2 x10_2/uL
  KIDNEY_L: 0.9 g
  KIDNEY_R: 0.9 g
  KIDNEY_TOTAL: 1.9 g
  LIVER: 8.2 g
  A/G: 0.9
  ALP: 1246.8 IU/L
  ALT: 42.6 IU/L
  AST: 81.6 IU/L
  BUN: 7.6 mg/dL
  CRE: 0.1 mg/dL
  Ca: 10.4 mg/dL
  Cl: 105.4 meq/L
  DBIL: 0.004 mg/dL
  GLC: 167.4 mg/dL
  IP: 9.9 mg/dL
  K: 3.5 meq/L
  LDH: 61.4 IU/L
  Na: 143.4 meq/L
  PL: 135.8 mg/dL
  RALB: 2.5 g/dL
  TBIL: 0.058 mg/dL
  TC: 74 mg/dL
  TG: 33.6 mg/dL
  TP: 5.4 g/dL
  gamma-GTP: 1.2 IU/L
[4]
  TERMINAL_BW: 211.3 g
  APTT: 17.6 s
  Bas: 0%
  Eos: 1%
  Fbg: 302 mg/dL
  Hb: 13.3 g/dL
  Ht: 40.5%
  Lym: 78%
  MCH: 21 pg
  MCHC: 32.8%
  MCV: 64 fL
  Mono: 2.8%
  Neu: 17%
  PT: 15.1 s
  Plat: 115.6 x10_4/uL
  RBC: 634 x10_4/ul
  Ret: 8.1%
  WBC: 80.3 x10_2/uL
  KIDNEY_L: 0.9 g
  KIDNEY_R: 0.9 g
  KIDNEY_TOTAL: 1.8 g
  LIVER: 10.2 g
  A/G: 0.8
  ALP: 1555.2 IU/L
  ALT: 49 IU/L
  AST: 69.8 IU/L
  BUN: 14.8 mg/dL
  CRE: 0.2 mg/dL
  Ca: 11 mg/dL
  Cl: 105.8 meq/L
  DBIL: 0.008 mg/dL
  GLC: 184.2 mg/dL
  IP: 9.1 mg/dL
  K: 4.2 meq/L
  LDH: 76.2 IU/L
  Na: 142 meq/L
  PL: 172.2 mg/dL
  RALB: 2.6 g/dL
  TBIL: 0.038 mg/dL
  TC: 93.2 mg/dL
  TG: 98.2 mg/dL
  TP: 5.6 g/dL
  gamma-GTP: 1 IU/L
[5]
  TERMINAL_BW: 199 g
  APTT: 17.8 s
  Bas: 0.4%
  Eos: 0.4%
  Fbg: 267.2 mg/dL
  Hb: 12.9 g/dL
  Ht: 39.8%
  Lym: 65.8%
  MCH: 21.4 pg
  MCHC: 32.4%
  MCV: 65.8 fL
  Mono: 4.2%
  Neu: 28%
  PT: 15.4 s
  Plat: 115.7 x10_4/uL
  RBC: 605.4 x10_4/ul
  Ret: 9.7%
  WBC: 95.8 x10_2/uL
  KIDNEY_L: 0.9 g
  KIDNEY_R: 0.9 g
  KIDNEY_TOTAL: 1.8 g
  LIVER: 9.3 g
  A/G: 0.9
  ALP: 1460 IU/L
  ALT: 47.8 IU/L
  AST: 77.2 IU/L
  BUN: 10.4 mg/dL
  CRE: 0.2 mg/dL
  Ca: 10.8 mg/dL
  Cl: 105.6 meq/L
  DBIL: 0.01 mg/dL
  GLC: 177.2 mg/dL
  IP: 9.8 mg/dL
  K: 4.1 meq/L
  LDH: 69.6 IU/L
  Na: 142 meq/L
  PL: 154.4 mg/dL
  RALB: 2.4 g/dL
  TBIL: 0.056 mg/dL
  TC: 83 mg/dL
  TG: 71.6 mg/dL
  TP: 5.2 g/dL
  gamma-GTP: 1.2 IU/L
[6]
  TERMINAL_BW: 195 g
  APTT: 16.4 s
  Bas: 0%
  Eos: 0.2%
  Fbg: 310.6 mg/dL
  Hb: 12.9 g/dL
  Ht: 39.3%
  Lym: 53.8%
  MCH: 21.1 pg
  MCHC: 32.8%
  MCV: 64.3 fL
  Mono: 2%
  Neu: 43.2%
  PT: 15.3 s
  Plat: 115.3 x10_4/uL
  RBC: 612.4 x10_4/ul
  Ret: 8.4%
  WBC: 82.5 x10_2/uL
  KIDNEY_L: 0.8 g
  KIDNEY_R: 0.9 g
  KIDNEY_TOTAL: 1.7 g
  LIVER: 8.3 g
  A/G: 0.9
  ALP: 1365.6 IU/L
  ALT: 36.4 IU/L
  AST: 69 IU/L
  BUN: 7.8 mg/dL
  CRE: 0.2 mg/dL
  Ca: 10.8 mg/dL
  Cl: 105.2 meq/L
  DBIL: 0.006 mg/dL
  GLC: 171.4 mg/dL
  IP: 10 mg/dL
  K: 3.7 meq/L
  LDH: 69.2 IU/L
  Na: 143.4 meq/L
  PL: 139.8 mg/dL
  RALB: 2.5 g/dL
  TBIL: 0.06 mg/dL
  TC: 80.4 mg/dL
  TG: 31.6 mg/dL
  TP: 5.3 g/dL
  gamma-GTP: 1.2 IU/L
[7]
  TERMINAL_BW: 195.3 g
  APTT: 16.7 s
  Bas: 0%
  Eos: 0.2%
  Fbg: 364.8 mg/dL
  Hb: 13 g/dL
  Ht: 40.1%
  Lym: 68.2%
  MCH: 21.4 pg
  MCHC: 32.4%
  MCV: 66.1 fL
  Mono: 2.2%
  Neu: 28.6%
  PT: 15.3 s
  Plat: 97.2 x10_4/uL
  RBC: 607 x10_4/ul
  Ret: 8.6%
  WBC: 61.4 x10_2/uL
  KIDNEY_L: 0.9 g
  KIDNEY_R: 0.9 g
  KIDNEY_TOTAL: 1.8 g
  LIVER: 8.4 g
  A/G: 0.9
  ALP: 1554.2 IU/L
  ALT: 38.8 IU/L
  AST: 71.4 IU/L
  BUN: 8.2 mg/dL
  CRE: 0.2 mg/dL
  Ca: 10.6 mg/dL
  Cl: 105.2 meq/L
  DBIL: 0.008 mg/dL
  GLC: 169.6 mg/dL
  IP: 10.5 mg/dL
  K: 3.7 meq/L
  LDH: 47.8 IU/L
  Na: 142.4 meq/L
  PL: 154.2 mg/dL
  RALB: 2.5 g/dL
  TBIL: 0.066 mg/dL
  TC: 84 mg/dL
  TG: 39.6 mg/dL
  TP: 5.4 g/dL
  gamma-GTP: 1 IU/L
[8]
  TERMINAL_BW: 211.6 g
  APTT: 17.8 s
  Bas: 0%
  Eos: 1%
  Fbg: 353.2 mg/dL
  Hb: 13.1 g/dL
  Ht: 40.4%
  Lym: 79.4%
  MCH: 21.5 pg
  MCHC: 32.4%
  MCV: 66.4 fL
  Mono: 3%
  Neu: 15.8%
  PT: 15.4 s
  Plat: 108.1 x10_4/uL
  RBC: 608.8 x10_4/ul
  Ret: 8.2%
  WBC: 71.1 x10_2/uL
  KIDNEY_L: 0.9 g
  KIDNEY_R: 0.9 g
  KIDNEY_TOTAL: 1.8 g
  LIVER: 10.2 g
  A/G: 0.8
  ALP: 1816.8 IU/L
  ALT: 43.2 IU/L
  AST: 70.8 IU/L
  BUN: 15.4 mg/dL
  CRE: 0.2 mg/dL
  Ca: 11.3 mg/dL
  Cl: 106 meq/L
  DBIL: 0.008 mg/dL
  GLC: 185.4 mg/dL
  IP: 8.7 mg/dL
  K: 4.5 meq/L
  LDH: 86.4 IU/L
  Na: 142.2 meq/L
  PL: 158.6 mg/dL
  RALB: 2.7 g/dL
  TBIL: 0.042 mg/dL
  TC: 81.8 mg/dL
  TG: 80.2 mg/dL
  TP: 5.8 g/dL
  gamma-GTP: 1 IU/L
